Data set [1] has as its target GSK-3β (Homo sapiens, UniProt P49841). In words: GSK-3β kinase assay (calliper mobility shift assay). The class given is biochemical. The following applies: mean ± SD from two separate experiments; calliper mobility shift assay.
Data set [2] relates to SH-SY5Y cells. Briefly: Cytotoxicity on SH-SY5Y cells (MTT assay). The format is cell-based, human. The procedure: To evaluate the neuronal cell cytotoxicity of compound 16b, we examined its cytotoxic profile on human neuroblastoma SH-SY5Y cells after incubation for 24 h by the MTT (3-(4,5-dimethylthiazol-2-yl)-2,5-diphenyltetrazolium bromide) assay.
Figure 5. Cell viability of SH-SY5Y cells exposed to compound 16b at different concentrations (range from 3.125 − 50 μM) for 24 h. Vehicle treater cells were used as control. The results were expressed as the percentage of viable cells observed after treatment with compound 16b respect to vehicle-treated cells (100%) and shown as the mean ± SD from at least three separate experiments.
SH-SY5Y cells were cultured in DMEM/F12 (Dulbecco’s modified Eagle medium and Ham’s F-12, 1:1) with 10% FBS (fetal bovine serum), 1% penicillin and 1% streptomycin under 5% CO2 atmosphere at 37 °C. SH-SY5Y cells (1 × 10^5) were seeded in 96-well plates and incubated for 24 h. Different concentrations of compound 16b were added into each well and incubated for another 24 h. The survival of cells was determined by MTT assay and the absorbance of each well were measured using a SpectraMax M5 multimode plate reader at 570 nm. Results were expressed as percentage of control and statistical analysis was performed using GraphPad Prism 5.0 (GraphPad Software Inc., San Diego, CA, USA).
(Formazan colour is commonly taken as a measure of viable cells.)

In data set [3] the test system is phosphorylation of GSK-3β at Ser9. Briefly: Western blot of p-GSK-3β (Ser9) in SH-SY5Y cells. The format is cell-based, human. As to conditions: 2.5 h, control 0.33. The text has this: GSK-3β is activated by phosphorylation at Tyr216 and is inhibited by phosphorylation at Ser9 [48]. As one of the substrates of Akt (protein kinase B), GSK-3 can inhibit Akt[49]. The inhibition of GSK-3β increases the p-Akt expression and activates the PI3K/Akt pathway, and that, in turn, phosphorylates the GSK-3β at the Ser9 site[50]^,[51]. […] As shown in Figure 6(A), LiCl greatly promoted GSK-3β phosphorylation at Ser9 (p-GSK-3β/GAPDH: 0.60 vs 0.33). […] Therefore, in cellular level, compound 16b was confirmed to have a direct effect on GSK-3β.
(§1) Figure 6. (A) The effect of 16b on phosphorylation of GSK-3β at Ser9; (B) the effect of 16b on β-catenin abundance. Protein expressions were detected by immunoblot analysis with a specific antibody. Values are reported as the mean ± SD of three independent experiments. *p < 0.05, **p < 0.01, ***p < 0.001 vs control.
SH-SY5Y cells (1 × 10^6) were seeded in 12-well plates (Corning, Los Altos, MA, USA) and incubated with compound 16b or LiCl at the indicated concentrations for 2.5 h at 37 °C in 5% CO2. At the end of incubation, cells were lysed by addition of ice-cold RIPA buffer containing a protease inhibitor cocktail. The protein quantification was determined using a BCA protein assay kit (Jiangsu KeyGEN BioTECH Co., Ltd., Nanjing, China). Cellular lysates were mixed with an equal volume of SDS (sodium dodecyl sulfate) loading buffer (Jiangsu KeyGEN BioTECH Co., Ltd., Nanjing, China) and separated by electrophoresis (Bio-rad Power Supplies Basic, Shanghai, China) in polyacrylamide gel. Proteins were transferred from acrylamide gels to nitrocellulose membranes and blocked in a blocking buffer (PBS, 5% non-fat milk) for 1.5 to 2 h at 20 °C. […] The blots were washed by TBST for 20 min and detected with ECL chemiluminescent reagent (Jiangsu KeyGEN BioTECH Co., Ltd., Nanjing, China) for 3 min. Pixel intensity was quantitated using gel imaging system (SYNGENE G:BOX/iChemi XR5, ISS, San Diego, CA, US) and Gel-Pro32 software (Media Cybernetics, Bethesda, MD, USA). […]

The test system of data set [4] is β-catenin. In words: Western blot of β-catenin abundance in SH-SY5Y cells. The format is cell-based, human. As to conditions: 2.5 h, control 0.41.
From the text: as §1
GSK-3β is implicated in the Wnt/β-catenin signalling pathway, which plays an important role in neuronal development. GSK-3β, together with adenomatous polyposis coli (APC), Axin, and casein kinase 1 (CK1), form a ploy-protein complex that regulates the hyperphosphorylation of β-catenin. Phospho-β-catenin is recognised by ubiquitin and degraded by proteasomes. Pharmacological inhibition of GSK-3β leads to the activation and stabilisation of β-catenin, subsequently resulting in the accumulation of β-catenin in cytoplasm. The activation of Wnt/β-catenin signalling pathway can promote synaptic growth, alleviate spatial memory impairment and neurodegeneration in Alzheimer’s models. Moreover, β-catenin also plays a pivotal role in cell adhesion complexes. The combination of β-catenin and N-cadherin elevates cell-to-cell interactions which is prerequisite for neuronal differentiation[61]^,[62]. Therefore, we further evaluated the effect of 16b on β-catenin. In agreement with its GSK-3β inhibitory activity on SH-SY5Y cells, 16b increased β-catenin abundance in a dose-dependent manner. […]
SH-SY5Y cells (1 × 10^6) were seeded in 12-well plates (Corning, Los Altos, MA, USA) and incubated with compound 16b or LiCl at the indicated concentrations for 2.5 h at 37 °C in 5% CO2. […] The protein quantification was determined using a BCA protein assay kit (Jiangsu KeyGEN BioTECH Co., Ltd., Nanjing, China). […] The blots were washed by TBST for 20 min and detected with ECL chemiluminescent reagent (Jiangsu KeyGEN BioTECH Co., Ltd., Nanjing, China) for 3 min. Pixel intensity was quantitated using gel imaging system (SYNGENE G:BOX/iChemi XR5, ISS, San Diego, CA, US) and Gel-Pro32 software (Media Cybernetics, Bethesda, MD, USA). […]
A general note: Immunoblotting shows a protein as a band on a membrane.

“Also recorded” adds a separate entry of the source.

Sequence of GSK-3β (P49841 whole entry): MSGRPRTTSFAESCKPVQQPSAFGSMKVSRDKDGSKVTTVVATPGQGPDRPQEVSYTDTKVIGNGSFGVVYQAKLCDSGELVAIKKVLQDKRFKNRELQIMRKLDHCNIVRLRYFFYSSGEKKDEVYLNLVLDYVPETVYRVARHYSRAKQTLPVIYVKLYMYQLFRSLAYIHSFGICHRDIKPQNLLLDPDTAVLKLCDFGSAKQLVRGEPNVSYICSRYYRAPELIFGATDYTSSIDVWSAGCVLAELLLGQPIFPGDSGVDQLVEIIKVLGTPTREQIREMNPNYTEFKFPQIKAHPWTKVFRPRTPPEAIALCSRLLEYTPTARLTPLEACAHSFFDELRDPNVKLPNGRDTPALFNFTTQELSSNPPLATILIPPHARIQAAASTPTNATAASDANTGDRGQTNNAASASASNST

Usually IC50 stands for the concentration needed to halve the response being measured. As for `CC(C)C(=O)Nc1n[nH]c2cc(-c3cccnc3)sc12` [Compound 16b, N-(5-(pyridin-3-yl)-1H-thieno[3,2-c]pyrazol-3-yl)isobutyramide], the IC50 in data set [1] was found to be 3.1 ± 0.1 nM. Besides, in data set [2] (50 μM versus GSK-3β IC50), the “non-cytotoxic concentration as fold of the IC50 value of GSK-3β inhibitory activity” value was greater than 16000 fold. For the same compound, in data set [2] (concentration up to 50 μM (3.125-50 μM), 24 h, MTT), the “cytotoxicity on SH-SY5Y cells” value is reported as “no toxicity; also recorded: no significant cytotoxicity”. Also, the results for the “p-GSK-3β/GAPDH ratio (Ser9)” value in data set [3] (10 μM) and in data set [3] (20 μM) were 0.41 and 0.50, respectively. The β-catenin/GADPH ratio in data set [4] (5 μM) turned out to be 0.54; in data set [4] (10 μM), 0.64; in data set [4] (20 μM) it was 0.76.

The values above are taken from PMC9225722, “Synthesis and biological evaluation of thieno[3,2-c]pyrazol-3-amine derivatives as potent glycogen synthase kinase 3β inhibitors for Alzheimer’s disease” (Journal of Enzyme Inhibition and Medicinal Chemistry, 2022).
